Laboratory results reported in PubChem BioAssay AID248 (DTP/NCI, 2004).
“And” between values parts separate entries of the source, which are not always exact repeats. Equal entries are not always repeated. Inconclusive results and toxic doses are left out. Rule as the data show it: active = T/C of 150% or more; inactive = T/C below 125%.

Tested on: L1210 leukemia ip in BDF1 mice, survival T/C
Test: NCI In Vivo Anticancer Drug Screen. Data for tumor model L1210 Leukemia (intraperitoneal) in B6D2F1 (BDF1) mice
Conditions: endpoint: mean survival time, higher = longer survival
How it was run: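 Tumor was transplanted into mice, which were then dosed with test compound or vehicle alone. Survival was recorded for each group, and the treated figure was expressed relative to the control figure.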

[1] = dose: 100.0 mg/kg/injection, schedule: Q01DX009 (ip), vehicle: saline
[2] = dose: 200.0 mg/kg/injection, schedule: Q01DX009 (ip), vehicle: saline
[3] = dose: 400.0 mg/kg/injection, schedule: Q01DX009 (ip), vehicle: saline
[4] = dose: 100.0 mg/kg/injection, schedule: Q01DX001 (ip), vehicle: saline
[5] = dose: 100.0 mg/kg/injection, schedule: Q04DX003 (ip), vehicle: saline with Tween-80
[6] = dose: 200.0 mg/kg/injection, schedule: Q01DX001 (ip), vehicle: saline
[7] = dose: 200.0 mg/kg/injection, schedule: Q04DX003 (ip), vehicle: saline with Tween-80
[8] = dose: 25.0 mg/kg/injection, schedule: Q01DX009 (ip), vehicle: Klucel (hydroxypropylcellulose) (HPC)
[9] = dose: 50.0 mg/kg/injection, schedule: Q01DX009 (ip), vehicle: Klucel (hydroxypropylcellulose) (HPC)
[10] = dose: 100.0 mg/kg/injection, schedule: Q01DX009 (ip), vehicle: Klucel (hydroxypropylcellulose) (HPC)
[11] = dose: 100.0 mg/kg/injection, schedule: Q04DX002 (ip), vehicle: Klucel (hydroxypropylcellulose) (HPC)
[12] = dose: 200.0 mg/kg/injection, schedule: Q04DX002 (ip), vehicle: Klucel (hydroxypropylcellulose) (HPC)
[13] = dose: 400.0 mg/kg/injection, schedule: Q04DX002 (ip), vehicle: Klucel (hydroxypropylcellulose) (HPC)
[14] = dose: 400.0 mg/kg/injection, schedule: Q01DX001 (ip), vehicle: saline

Measured: T/C

Clc1ccc([O][Sn]([c]2ccccc2)([c]2ccccc2)[c]2ccccc2)c(-c2ccccc2)c1
inactive: dose: 5.0 mg/kg/injection, schedule: Q01DX001 (ip), vehicle: saline 90 % of control | dose: 10.0 mg/kg/injection, schedule: Q01DX001 (ip), vehicle: saline 96 % of control

CCC(C)COS(=O)(=O)c1ccc(C)cc1 (stereo not drawn)
inactive: dose: 100.0 mg/kg/injection, schedule: Q04DX002 (ip), vehicle: saline with Tween-80 103 % of control | dose: 200.0 mg/kg/injection, schedule: Q04DX002 (ip), vehicle: saline with Tween-80 103 % of control | dose: 400.0 mg/kg/injection, schedule: Q04DX002 (ip), vehicle: saline with Tween-80 100 % of control

COC(=O)CCC(C)[N+](=O)[O-] (stereo not drawn)
inactive: [1] 112 % of control | [2] 104 % of control | [3] 98 % of control

CN(C/C=C/CN(C)P(=O)(N1CC1)N1CC1)P(=O)(N1CC1)N1CC1
inactive: dose: 6.25 mg/kg/injection, schedule: Q01DX009 (ip), vehicle: saline 107 % of control

CC1=Nc2ccccc2N=C(C)C1
inactive: [4] 107 % of control | [5] 93 % of control | [6] 102 % of control | [7] 96 % of control

O=C(O)c1cnc(Cl)c([N+](=O)[O-])c1
inactive: [5] 96 % of control | [7] 89 % of control

Cc1ccc(Nc2c3ccccc3nc3ccccc23)cc1C
inactive: [8] 94 % of control | [9] 91 % of control | [10] 102 % of control | [11] 100 % of control

c1ccc(N2CN(c3ccccc3)N(c3ccccc3)CN2c2ccccc2)cc1
inactive: dose: 100.0 mg/kg/injection, schedule: Q01DX001 (ip), vehicle: other 92 % of control | dose: 200.0 mg/kg/injection, schedule: Q01DX001 (ip), vehicle: other 89 % of control

O=C(c1ccccc1)C1CC1c1ccccc1 (stereo not drawn)
inactive: dose: 75.0 mg/kg/injection, schedule: Q01DX001 (ip), vehicle: Klucel (hydroxypropylcellulose) (HPC) 96 % of control | dose: 75.0 mg/kg/injection, schedule: Q04DX002 (ip), vehicle: saline with Tween-80 105 % of control | dose: 100.0 mg/kg/injection, schedule: Q04DX003 (ip), vehicle: saline 101 % of control | dose: 150.0 mg/kg/injection, schedule: Q01DX001 (ip), vehicle: Klucel (hydroxypropylcellulose) (HPC) 100 % of control | dose: 150.0 mg/kg/injection, schedule: Q04DX002 (ip), vehicle: saline with Tween-80 91 % of control | dose: 200.0 mg/kg/injection, schedule: Q04DX003 (ip), vehicle: saline 93 % of control | dose: 300.0 mg/kg/injection, schedule: Q01DX001 (ip), vehicle: Klucel (hydroxypropylcellulose) (HPC) 102 % of control | dose: 300.0 mg/kg/injection, schedule: Q04DX002 (ip), vehicle: saline with Tween-80 98 % of control | dose: 400.0 mg/kg/injection, schedule: Q04DX003 (ip), vehicle: saline 103 % of control

N#Cc1c(NN)n(C2OC(CO)C(O)C2O)c2ncncc12 (stereo not drawn)
inactive: dose: 100.0 mg/kg/injection, schedule: Q01DX005 (ip), vehicle: saline 106 % of control | dose: 200.0 mg/kg/injection, schedule: Q01DX005 (ip), vehicle: saline 106 % of control

C=C(C)COC(OCC(=C)C)C(C)C
inactive: [10] 96 % of control | [11] 102 % of control | dose: 200.0 mg/kg/injection, schedule: Q01DX009 (ip), vehicle: Klucel (hydroxypropylcellulose) (HPC) 89 % of control | [12] 109 % of control | [13] 112 % of control

O=C1C=CC(=O)C2C3CC(C4OC34)C12 (stereo not drawn)
inactive: dose: 25.0 mg/kg/injection, schedule: Q01DX009 (ip), vehicle: saline with Tween-80 102 % of control | dose: 50.0 mg/kg/injection, schedule: Q01DX009 (ip), vehicle: saline with Tween-80 94 % of control | dose: 100.0 mg/kg/injection, schedule: Q01DX009 (ip), vehicle: saline with Tween-80 100 % of control and 89 % of control

CC(C)NC(=O)C1C2C=CC(CC2)C1C(=O)NC(C)C (stereo not drawn)
inactive: [5] 100 % of control | [7] 92 % of control | dose: 400.0 mg/kg/injection, schedule: Q04DX003 (ip), vehicle: saline with Tween-80 104 % of control

O=[As](O)(O)c1ccccc1N=Nc1ccccc1
inactive: dose: 75.0 mg/kg/injection, schedule: Q01DX009 (ip), vehicle: Klucel (hydroxypropylcellulose) (HPC) 100 % of control | dose: 150.0 mg/kg/injection, schedule: Q01DX009 (ip), vehicle: Klucel (hydroxypropylcellulose) (HPC) 87 % of control | dose: 300.0 mg/kg/injection, schedule: Q01DX009 (ip), vehicle: Klucel (hydroxypropylcellulose) (HPC) 108 % of control

Cc1nnc(NS(=O)(=O)c2ccc(N=Nc3ccc(O)c4ncccc34)cc2)s1
inactive: [4] 105 % of control | [6] 102 % of control | [14] 96 % of control

Oc1ccccc1/C=N/C(O)C(Cl)(Cl)Cl (stereo not drawn)
inactive: [11] 96 % of control | [12] 114 % of control | [13] 107 % of control

CC(=O)c1cccc(NS(=O)(=O)c2ccc(Cl)cc2)c1
inactive: [11] 94 % of control | [12] 100 % of control | [13] 91 % of control

COC(=O)c1ccc(OC(=O)Nc2ccc([N+](=O)[O-])cc2OC)cc1
inactive: [8] 96 % of control | [9] 101 % of control | [10] 93 % of control and 100 % of control

CC(=O)OC1CCC2(C)C(=CCC3C2CCC2(C)c4c(-c5ccccc5)nn(-c5ccccc5)c4CC32)C1 (stereo not drawn)
inactive: dose: 12.5 mg/kg/injection, schedule: Q04DX002 (ip), vehicle: Klucel (hydroxypropylcellulose) (HPC) 96 % of control | dose: 25.0 mg/kg/injection, schedule: Q04DX002 (ip), vehicle: Klucel (hydroxypropylcellulose) (HPC) 96 % of control | dose: 50.0 mg/kg/injection, schedule: Q04DX002 (ip), vehicle: Klucel (hydroxypropylcellulose) (HPC) 101 % of control

O=S(=O)(O)CCBr
inactive: dose: 50.0 mg/kg/injection, schedule: Q01DX001 (ip), vehicle: saline 108 % of control | [4] 96 % of control and 104 % of control | [1] 97 % of control | [6] 101 % of control and 108 % of control | [2] 96 % of control | [14] 104 % of control and 106 % of control | [3] 108 % of control

COC1CCC(NC(=O)NCCCl)CC1 (stereo not drawn)
inactive: dose: 100.0 mg/kg/injection, schedule: Q01DX001 (ip), vehicle: Klucel (hydroxypropylcellulose) (HPC) 95 % of control | dose: 100.0 mg/kg/injection, schedule: Q04DX003 (ip), vehicle: Klucel (hydroxypropylcellulose) (HPC) 103 % of control | dose: 200.0 mg/kg/injection, schedule: Q01DX001 (ip), vehicle: Klucel (hydroxypropylcellulose) (HPC) 102 % of control | dose: 200.0 mg/kg/injection, schedule: Q04DX003 (ip), vehicle: Klucel (hydroxypropylcellulose) (HPC) 97 % of control | dose: 400.0 mg/kg/injection, schedule: Q01DX001 (ip), vehicle: Klucel (hydroxypropylcellulose) (HPC) 95 % of control | dose: 400.0 mg/kg/injection, schedule: Q04DX003 (ip), vehicle: Klucel (hydroxypropylcellulose) (HPC) 97 % of control

O=[N+]([O-])c1cc(C(F)(F)C(F)(F)C(F)(F)c2ccc(O)c([N+](=O)[O-])c2)ccc1O
inactive: dose: 25.6 mg/kg/injection, schedule: Q04DX002 (ip), vehicle: saline with Tween-80 95 % of control | dose: 64.0 mg/kg/injection, schedule: Q04DX002 (ip), vehicle: saline with Tween-80 100 % of control | dose: 160.0 mg/kg/injection, schedule: Q04DX002 (ip), vehicle: saline with Tween-80 92 % of control

C=CCc1ccc(OC(=O)Nc2ccc(Cl)cc2)c(OC)c1
inactive: [11] 115 % of control | [12] 107 % of control | [13] 100 % of control

CS(=N)(=O)CC(N)C(=O)O (stereo not drawn)
inactive: [1] 95 % of control | [2] 114 % of control | [3] 95 % of control
